From PubChem BioAssay AID1845202 (Molecular Pharmacology Branch, DTP, NCI, 2023)
pIC50: −log10 of the molar value.

System: DMS 114 tumor spheroids, viability % test/control
Experiment: Anticancer human tumor DMS 114 cell line growth inhibition;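 further: spheroids exposed to compounds for 7 days before read-out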;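 on viability, T/C: luminescence used as a proxy for viable cells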
Details: spheroids with HUVEC and MSC; for pIC50: curve of first compound; for viability, T/C: stronger effect = lower value
In short: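 Single agents and combinations were tested on spheroids built from tumor cells plus HUVEC and hMSC, at half-log dilutions starting at or near clinical Cmax, else 10 microM; final DMSO 0.25% (v/v).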

[1] = second compound 1 µM, first compound 0.00949 µM
[2] = second compound 1 µM, first compound 0.03 µM
[3] = second compound 1 µM, first compound 0.0949 µM
[4] = second compound 1 µM, first compound 0.3 µM
[5] = second compound 1 µM, first compound 0.949 µM
[6] = second compound 1 µM, first compound 3 µM
[7] = second compound 3.16 µM, first compound 0.00949 µM
[8] = second compound 3.16 µM, first compound 0.03 µM
[9] = second compound 3.16 µM, first compound 0.0949 µM
[10] = second compound 3.16 µM, first compound 0.3 µM
[11] = second compound 3.16 µM, first compound 0.949 µM
[12] = second compound 3.16 µM, first compound 3 µM
[13] = second compound 10 µM, first compound 0.00949 µM
[14] = second compound 10 µM, first compound 0.03 µM
[15] = second compound 10 µM, first compound 0.0949 µM
[16] = second compound 10 µM, first compound 0.3 µM
[17] = second compound 10 µM, first compound 0.949 µM
[18] = second compound 10 µM, first compound 3 µM
[19] = second compound 31.6 µM, first compound 0.00949 µM
[20] = second compound 31.6 µM, first compound 0.03 µM
[21] = second compound 31.6 µM, first compound 0.0949 µM
[22] = second compound 31.6 µM, first compound 0.3 µM
[23] = second compound 31.6 µM, first compound 0.949 µM
[24] = second compound 31.6 µM, first compound 3 µM
[25] = second compound 100 µM, first compound 0.00949 µM
[26] = second compound 100 µM, first compound 0.03 µM
[27] = second compound 100 µM, first compound 0.0949 µM
[28] = second compound 100 µM, first compound 0.3 µM
[29] = second compound 100 µM, first compound 0.949 µM
[30] = second compound 100 µM, first compound 3 µM

| SMILES | pIC50 (second compound 1 µM) | pIC50 (second compound 3.16 µM) | pIC50 (second compound 10 µM) | pIC50 (second compound 31.6 µM) | pIC50 (second compound 100 µM) | viability, T/C [3] [%] | viability, T/C [4] [%] | viability, T/C [5] [%] | viability, T/C [6] [%] | viability, T/C [9] [%] | viability, T/C [10] [%] | viability, T/C [11] [%] | viability, T/C [12] [%] | viability, T/C [15] [%] | viability, T/C [16] [%] | viability, T/C [17] [%] | viability, T/C [18] [%] | viability, T/C [21] [%] | viability, T/C [22] [%] | viability, T/C [23] [%] | also measured |
| --- | --- | --- | --- | --- | --- | --- | --- | --- | --- | --- | --- | --- | --- | --- | --- | --- | --- | --- | --- | --- | --- |
| CNCc1ccc(-c2cc(-c3nc(-c4ccc(S(=O)(=O)C(C)C)cc4)cnc3N)on2)cc1 + Cn1nnc2c(C(N)=O)ncn2c1=O | 6.73 | 6.75 | 6.76 | 6.79 | 7.04 | 80.9 | 28.3 | 5.64 | 0.18 | 77.6 | 27 | 3.9 | 0.24 | 72.7 | 30.2 | 2.75 | 0.19 | 75.8 | 22.4 | 2.81 | viability, T/C [1]: 103%; viability, T/C [2]: 94.4%; viability, T/C [7]: 102%; viability, T/C [8]: 103%; viability, T/C [13]: 101%; viability, T/C [14]: 99.3%; viability, T/C [19]: 114%; viability, T/C [20]: 92%; viability, T/C [24]: 0.23%; viability, T/C [25]: 89.7%; viability, T/C [26]: 83.3%; viability, T/C [27]: 47.4%; viability, T/C [28]: 16.1%; viability, T/C [29]: 2.42%; viability, T/C [30]: 0.69% |
| Cc1sc2c(c1C)C(c1ccc(Cl)cc1)=NC(CC(=O)Nc1ccc(O)cc1)c1nnc(C)n1-2 (stereo not given) + Cn1nnc2c(C(N)=O)ncn2c1=O | 6.80 | 6.71 | 6.77 | 6.78 | 6.94 | 64.5 | 29.9 | 11.3 | 6.69 | 81.4 | 30.7 | 10.7 | 6.68 | 71.6 | 28.1 | 10.7 | 4.92 | 71 | 28.6 | 9.45 | viability, T/C [1]: 98.8%; viability, T/C [2]: 101%; viability, T/C [7]: 104%; viability, T/C [8]: 103%; viability, T/C [13]: 102%; viability, T/C [14]: 108%; viability, T/C [19]: 114%; viability, T/C [20]: 100%; viability, T/C [24]: 4.67%; viability, T/C [25]: 93.9%; viability, T/C [26]: 93%; viability, T/C [27]: 55.1%; viability, T/C [28]: 18.9%; viability, T/C [29]: 6.62%; viability, T/C [30]: 2.68% |
| Cn1ncnc1[C@H]1c2n[nH]c(=O)c3cc(F)cc(c23)N[C@@H]1c1ccc(F)cc1 + Cn1nnc2c(C(N)=O)ncn2c1=O | 6.16 | 6.19 | 6.68 | > 8.02 | > 8.02 | 98.8 | 82.6 | 37.9 | 11.6 | 97.2 | 77.2 | 36 | 14 | 65.8 | 43.4 | 27.1 | 16.2 | 32.4 | 27.6 | 20.7 | viability, T/C [1]: 106%; viability, T/C [2]: 107%; viability, T/C [7]: 112%; viability, T/C [8]: 107%; viability, T/C [13]: 111%; viability, T/C [14]: 82.7%; viability, T/C [19]: 51.5%; viability, T/C [20]: 39.3%; viability, T/C [24]: 10.8%; viability, T/C [25]: 24.1%; viability, T/C [26]: 23.1%; viability, T/C [27]: 22.3%; viability, T/C [28]: 19.4%; viability, T/C [29]: 14.9%; viability, T/C [30]: 9.45% |
| O=C(c1cc(Cc2n[nH]c(=O)c3ccccc23)ccc1F)N1CCN(C(=O)C2CC2)CC1 + Cn1nnc2c(C(N)=O)ncn2c1=O | 4.70 | 4.66 | 4.99 | 5.58 | 6.60 | 106 | 99.2 | 105 | 106 | 112 | 109 | 108 | 102 | 120 | 111 | 118 | 81.6 | 110 | 103 | 83.7 | viability, T/C (second compound 1 µM, first compound 9.49 µM): 73.9%; viability, T/C (second compound 1 µM, first compound 30 µM): 37%; viability, T/C (second compound 3.16 µM, first compound 9.49 µM): 68.5%; viability, T/C (second compound 3.16 µM, first compound 30 µM): 43.1%; viability, T/C (second compound 10 µM, first compound 9.49 µM): 54.3%; viability, T/C (second compound 10 µM, first compound 30 µM): 30.1%; viability, T/C [24]: 46.2%; viability, T/C (second compound 31.6 µM, first compound 9.49 µM): 28.1%; viability, T/C (second compound 31.6 µM, first compound 30 µM): 25.8%; viability, T/C [27]: 60.2%; viability, T/C [28]: 48.7%; viability, T/C [29]: 32.9%; viability, T/C [30]: 25.4%; viability, T/C (second compound 100 µM, first compound 9.49 µM): 21.1%; viability, T/C (second compound 100 µM, first compound 30 µM): 19% |
